One molecule from paper PMC5630639 (Scientific Reports, 2017) can be followed below.

Data set [1] relates to MGC-803 cells. Nature of the data set: Annexin V-FITC/PI apoptosis analysis by flow cytometry. Format: cell-based, human. The conditions noted are these: 24 h. The procedure: We next evaluated whether 28 induces apoptosis in MGC-803 cells by flow cytometry analysis of propidium iodide (PI) and Annexin V stained cells. […] When MGC-803 cells were incubated with 28 at 0.1, 0.2, and 0.3 μM for 24 h, the percentages of early apoptotic cells were 12.4%, 40.5%, and 49.7%, respectively and those of late apoptotic cells 2.1%, 10.1%, and 9.4%, respectively (Fig. 4A). Bcl-2 family proteins were crucial components of mitochondrial stress-induced cellular apoptosis. Thus, the expression of apoptosis-related proteins was also determined.
An Annexin V-FITC/PI kit (KeyGEN BioTECH, Nanjing, China) was used to detect apoptosis. Cells were seeded in 6-well plates and treated with 0, 0.1, 0.2 and 0.3 µM of 28 for 24 h. Then MGC-803 cells were collected and suspended in binding buffer containing Annexin V-FITC (0.5 mg/mL) and PI (0.5 mg/mL) and incubated in dark for 20 min and analyzed by flow cytometry (Becton, Dickinson and Company, NJ). The apoptosis related proteins of western blot analysis were conducted according to our previously reported method[31],[32].
(In flow cytometry, cells or beads pass a laser one at a time.)

For data set [2], the system named is MGC-803 cells. Description: Cell scarification assay. Format: cell-based, human. The conditions noted are these: time-dependent and concentration-dependent. The procedure:
In a transwell test, the average numbers of migrated cells in fields of control, 0.1 and 0.2 μM 28 treated MGC-803 cells were 29.4, 22.4 and 16.6, respectively (Fig. 6B and C). Based on the results from these tests, we next examined the protein expression of EMT-related makers such as E-cadherenin, N-cadherenin, ZO-1 and Vementin[55].
MGC-803 cells were seeded in 6-well plate until cells grew to confluence. Tips were used to make a scratch on cells. Control and 28 contained culture media without fetal bovine serum were added subsequently after 3 times of washing by PBS. Then the cells were cultured at 37 °C in a humidified incubator containing 5% CO2 and photos taken at 0, 16, 24 and 48 h, respectively.

For data set [3], the system named is A549 cells. Description: CCK-8 proliferation assay, A549. The format is cell-based, human. The conditions noted are these: Homo sapiens, A549; 48 h, CCK-8, mean ± SD. The method, then: (§1) All synthesized β-lactam-azide derivatives were evaluated for their antiproliferative activity against three cancer cell lines (MGC-803, MCF-7, A549) using CCK-8 proliferation assay. The well-known anticancer drug CA-4P was used as a control[36],[37].
(§2) MGC-803 cell line was obtained from the Chinese Academy of Sciences (Shanghai, China). MCF-7 and A549 were from the National Cell Center, China. MGC-803 cells were cultured in DMEM culture medium (DMEM, Biological Industries, Kibbutz Beit Haemek, Israel). A549 and MCF-7 cells were cultured in 1640 medium (1640, Biological Industries, Kibbutz Beit Haemek, Israel). All medium were supplemented with 10% fetal bovine serum, 100 U/ml penicillin (North China Pharmaceutical group Co.), and 100 µg/ml streptomycin (North China Pharmaceutical group Co.). All cells were cultured at 37 °C in a humidified incubator containing 5% CO2.
(§3) Synthesized analogues used in the study were dissolved in 100% cell culture grade DMSO and the final concentration of DMSO as <0.1% for testing on cancer cell lines. Cytotoxicity assays were performed on the human gastric carcinoma cell line MGC-803, the human mammary carcinoma cell line MCF-7, the human lung carcinoma cell line A549. Cells (3500–5000/well) were seeded into 96-well plates in 100 µL of culture medium. The cells were treated in triplicate with a gradient concentration of testing compounds and incubated at 37 °C, 5% CO2 for 48 h. For all cell lines, CCK-8 assay was performed to measure cytotoxic effects. The absorbance was measured using a microplate reader (BioTek Instrument, Inc. Vermont, USA) with a test wavelength of 450 nm. The absorbance levels were corrected against untreated control absorbance values. All experiments were performed in triplicate and SPSS17.0 was used for data analysis to obtain IC50 values.
In general terms: Tetrazolium assays rely on reduction of a dye to a coloured formazan, in cell work by metabolically active cells.

Data set [4] deals with MGC-803 xenograft. Description: MGC-803 xenograft model in nude mice. The format is in vivo, BALB/c nude mice. The note with it: for average tumor weight: 21 days (control 1.23 ± 0.28); for mean tumor volume at end of observation period: 21 days (control 1665.98 ± 568.36). The procedure:
To evaluate the potential antitumor effects of 28 in vivo, a MGC-803 xenograft model were established in nude mice by subcutaneously injecting MGC-803 cells at its logarithmic phase into the right flank of mice[56]. Tumor bearing mice were then randomly assigned to five groups (control, 100 mg/kg CA-4P, 25, 50, 100 mg/kg 28) with 10 mice per group. Then, the mice were gavaged with saline (control), CA-4P and different concentrations of 28 in saline solution daily. […] At the end of the observation period, mean tumor volumes of control, CA-4P, 25, 50, and 100 mg/kg 28 groups were 1665.98 ± 568.36 mm^3, 642.61 ± 449.92 mm^3, 788.18 ± 435.92 mm^3, 1125.93 ± 668.25 mm^3 and 1273.88 ± 513.69 mm^3, respectively. […] The antitumor activity of 28 in vivo was similar to that of CA-4P.
Animals were treated according to protocols established by the ethics committee of Zhengzhou University and the in vivo experiments were carried out in accordance with the approved guidelines and approved by the ethics committee of Zhengzhou University. BALB/c nude mice (18 g, aged 4–5 weeks) were purchased from Human SJA Laboratory Animal Co. Ltd. (Hunan, China). Mice were subcutaneously implanted with MGC-803 cells (5 × 10^6 cells per mouse) on the right flank of nude mice. Once tumor volumes reached to approximately 100 mm^3, the mice were randomly divided into corresponding saline, CA-4P (100 mg/kg), 28 (100 mg/kg), 28 (50 mg/kg) and 28 (25 mg/kg) treatment groups (n = 10 mice for each group). The treatment groups received intragastric administration of 28 and CA-4P per day for a period of 21 days. Then, the mice were euthanized and tumors isolated and weighed. Their body weights were measured and tumor sizes determined by vernier caliper measurement every other day.

Data set [5] has as its system MCF-7 cells. Description: CCK-8 proliferation assay, MCF-7. The format is cell-based, human. The note with it: Homo sapiens, MCF7; 48 h, CCK-8, mean ± SD. The method, then: as §1, §2, §3

For orientation: IC50 means the midpoint of a concentration-inhibition curve. A higher IC50 goes with weaker potency.

Entries after “also recorded” stand apart in the source; their conditions may differ.

As for `COc1cc(N2C(=O)[C@H](c3cccs3)[C@H]2c2cccc(N=[N+]=[N-])c2)cc(OC)c1OC` (relative stereo) [Compound 28, trans-4-(3-azidophenyl)-3-(thiophen-2-yl)-1-(3,4,5-trimethoxyphenyl)azetidin-2-one], the figures for the early apoptotic cells in data set [1] (0.1 μM), in data set [1] (0.2 μM) and in data set [1] (0.3 μM) were 12.4%, 40.5% and 49.7%, respectively. Besides, the late apoptotic cells was 2.1% in data set [1] (0.1 μM), 10.1% in data set [1] (0.2 μM) and 9.4% in data set [1] (0.3 μM). Moreover, the “distances of scratches compared to control” value in data set [2] is recorded as “obviously increased”. Further, the IC50 in data set [3] is 507 ± 52 nM; in data set [5] it was 421 ± 47 nM. Besides, the “inhibitory rate (tumor weight)” value is on record as 59.34% in data set [4] (25 mg/kg, intragastric daily, 21 days); 30.78% in data set [4] (50 mg/kg, intragastric daily, 21 days); 10.99% in data set [4] (100 mg/kg, intragastric daily, 21 days). Moreover, the average tumor weight in data set [4] (25 mg/kg, intragastric daily) turned out to be 0.53 ± 0.20 g; in data set [4] (50 mg/kg, intragastric daily), 0.85 ± 0.32 g; in data set [4] (100 mg/kg, intragastric daily) it was 1.09 ± 0.31 g. Moreover, the “mean tumor volume at end of observation period” value in data set [4] (25 mg/kg, intragastric daily) was 788.18 ± 435.92 mm^3; in data set [4] (50 mg/kg, intragastric daily), 1125.93 ± 668.25 mm^3; in data set [4] (100 mg/kg, intragastric daily), 1273.88 ± 513.69 mm^3. Further, in data set [4] (100 mg/kg, intragastric daily), the tumor growth result is reported as “considerable suppression of tumor growth”. Further, in data set [4] (oral administration, 21 days), the “body weight of mice” value is reported as “without causing significant loss of body weight; also recorded: without causing any obvious loss of body weight”.
